Measured values as given in the supplement of paper PMC11208160.

Assay: recombinant UMI read abundance after kanamycin selection (control-corrected) (log10(CPM+1)); higher = more efficient recombination; extreme values may be limits of the assay; sequences stand for … in AGTGCAGAGAAAATCGGCCAGTTTTCTCTGCCTGCAGTCCGCATGCCGTGGGACCCCTTGGGTTCTAACCTGTTGCCTAGATTTATGCAGCGGACTGCCTTTCTCCCAAAGTGATAAACCGG…AGGTTGGTTTCACT; site = the 11-nt donor
Procedure, shortened: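 Under IPTG (0.07 mM) plus kanamycin, or without selection, Escherichia coli carrying a UMI-tagged donor and donor-binding-loop pair library and a target plasmid for the IS621 bridge recombinase were plated in two replicates. Recombinant UMIs were PCR-amplified across the donor–target junction and sequenced. Counts were converted to CPM, averaged over replicates, scaled by control-derived factors and reported as log10(CPM+1).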
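Also: IS621 bridge recombinase in Escherichia coli cells against a fixed T5 target plasmid.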

Row | Sequence | recombinant UMI read abundance (log10)
1 | ATAGTGGCATGGACCGGTTTTCCCGGTAATCCGTATTTGGC (site ATAGTGGCTGC) | 2.85
2 | ATAGTTTCATGGACCGGTTTTCCCGGTAATCCGTATTTGCA (site ACAGTATCTTG) | 1.49
3 | ATAGTTTCATGGACCGGTTTTCCCGGTAATCCGTATTTGCA (site ATAGTTTCTTG) | 2.47
4 | ATATAGACATGGACCGGTTTTCCCGGTAATCCGTATTTGCT (site ATATAGACTAG) | 2.72
5 | ATATCGCCATGGACCGGTTTTCCCGGTAATCCGTATTTGAT (site ATATCGCCTAT) | 0.284
6 | ATATCTGCATGGACCGGTTTTCCCGGTAATCCGTATTTGTA (site ATATCTGCTTA) | 2
7 | ATATTCACATGGACCGGTTTTCCCGGTAATCCGTATTTGTT (site ATATTCACTAA) | 1.75
8 | ATCAAGACATGGACCGGTTTTCCCGGTAATCCGTATTTGCA (site AGGAAGACTTG) | 0.783
9 | ATCAAGACATGGACCGGTTTTCCCGGTAATCCGTATTTGCA (site ATCAAGACTTG) | 2.31
10 | ATCAAGGCATGGACCGGTTTTCCCGGTAATCCGTATTTGTC (site ATCAAGGCTGA) | 1.53
11 | ATCAATACATGGACCGGTTTTCCCGGTAATCCGTATTTGCA (site ATCAATACTTG) | 1.44
12 | ATCATTGCATGGACCGGTTTTCCCGGTAATCCGTATTTGGC (site ATCATTGCTGC) | 2.13
13 | ATCCAAGCATGGACCGGTTTTCCCGGTAATCCGTATTTGAA (site ATCCAAGCTAT) | 0.379
14 | ATCCAAGCATGGACCGGTTTTCCCGGTAATCCGTATTTGAA (site ATCCAAGCTCT) | 0.445
15 | ATCCAAGCATGGACCGGTTTTCCCGGTAATCCGTATTTGAA (site ATCCAAGCTGT) | 0.751
16 | ATCCAAGCATGGACCGGTTTTCCCGGTAATCCGTATTTGAA (site ATCCAAGCTTT) | 1.29
17 | ATCCAAGCATGGACCGGTTTTCCCGGTAATCCGTATTTGGG (site ATCCAAGCTCA) | 0.0113
18 | ATCCAAGCATGGACCGGTTTTCCCGGTAATCCGTATTTGGG (site ATCCAAGCTCC) | 0.365
19 | ATCCAAGCATGGACCGGTTTTCCCGGTAATCCGTATTTGGG (site ATCCAAGCTCG) | 0.0298
20 | ATCCAAGCATGGACCGGTTTTCCCGGTAATCCGTATTTGGG (site ATCCAAGCTCT) | 0.00791
21 | ATCCAATCATGGACCGGTTTTCCCGGTAATCCGTATTTGAG (site ATCCAAACTCT) | 0.00423
22 | ATCCAATCATGGACCGGTTTTCCCGGTAATCCGTATTTGAG (site ATCCAACCTCT) | 0.0188
23 | ATCCAATCATGGACCGGTTTTCCCGGTAATCCGTATTTGAG (site ATCCAAGCTCT) | 0.0117

Row | Sequence | recombinant UMI read abundance (log10)
24 | ATCCAATCATGGACCGGTTTTCCCGGTAATCCGTATTTGAG (site ATCCAATCTCT) | 1.04
25 | ATCCAGGCATGGACCGGTTTTCCCGGTAATCCGTATTTGAG (site ATCCAAGCTCT) | 0.547
26 | ATCCAGGCATGGACCGGTTTTCCCGGTAATCCGTATTTGAG (site ATCCACGCTCT) | 0.013
27 | ATCCAGGCATGGACCGGTTTTCCCGGTAATCCGTATTTGAG (site ATCCAGGCTCT) | 0
28 | ATCCAGGCATGGACCGGTTTTCCCGGTAATCCGTATTTGAG (site ATCCATGCTCT) | 0.382
29 | ATCCAGGCATGGACCGGTTTTCCCGGTAATCCGTATTTGCC (site ATCCAGGCTGG) | 0
30 | ATCCATACATGGACCGGTTTTCCCGGTAATCCGTATTTGAC (site ATCAATACTGT) | 0
31 | ATCCATACATGGACCGGTTTTCCCGGTAATCCGTATTTGAC (site ATCCATACTGT) | 1.77
32 | ATCCATACATGGACCGGTTTTCCCGGTAATCCGTATTTGAC (site ATCGATACTGT) | 0
33 | ATCCATACATGGACCGGTTTTCCCGGTAATCCGTATTTGAC (site ATCTATACTGT) | 0
34 | ATCCCCTCATGGACCGGTTTTCCCGGTAATCCGTATTTGGA (site ATCCCCTCTTC) | 1.95
35 | ATCCCGGCATGGACCGGTTTTCCCGGTAATCCGTATTTGAG (site CGAAGCCCTAG) | 0
36 | ATCCGACCATGGACCGGTTTTCCCGGTAATCCGTATTTGTC (site ATCCGACCTGA) | 0
37 | ATCCTTTCATGGACCGGTTTTCCCGGTAATCCGTATTTGAC (site AACCTTTCTGT) | 0
38 | ATCCTTTCATGGACCGGTTTTCCCGGTAATCCGTATTTGAC (site ACCCTTTCTGT) | 0
39 | ATCCTTTCATGGACCGGTTTTCCCGGTAATCCGTATTTGAC (site AGCCTTTCTGT) | 0
40 | ATCCTTTCATGGACCGGTTTTCCCGGTAATCCGTATTTGAC (site ATCCTTTCTGT) | 0
41 | ATCGAATCATGGACCGGTTTTCCCGGTAATCCGTATTTGAA (site ATCGAATCTTT) | 2.58
42 | ATCGCCTCATGGACCGGTTTTCCCGGTAATCCGTATTTGGG (site ATCGCCTCTCC) | 0.29
43 | ATCGCGTCATGGACCGGTTTTCCCGGTAATCCGTATTTGAA (site ATCGCGTCTTT) | 2.01
44 | ATCGTGCCATGGACCGGTTTTCCCGGTAATCCGTATTTGTT (site ATCGTGCCTAA) | 0.0076
45 | ATCTAAACATGGACCGGTTTTCCCGGTAATCCGTATTTGAC (site ATCTAAACTGT) | 2.72
46 | ATCTAAACATGGACCGGTTTTCCCGGTAATCCGTATTTGAC (site ATCTACACTGT) | 0.25

Row | Sequence | recombinant UMI read abundance (log10)
47 | ATCTAAACATGGACCGGTTTTCCCGGTAATCCGTATTTGAC (site ATCTAGACTGT) | 0
48 | ATCTAAACATGGACCGGTTTTCCCGGTAATCCGTATTTGAC (site ATCTATACTGT) | 0.00453
49 | ATCTACACATGGACCGGTTTTCCCGGTAATCCGTATTTGAC (site ATCTAAACTGT) | 1.21
50 | ATCTACACATGGACCGGTTTTCCCGGTAATCCGTATTTGAC (site ATCTACACTGT) | 2.83
51 | ATCTACACATGGACCGGTTTTCCCGGTAATCCGTATTTGAC (site ATCTAGACTGT) | 0
52 | ATCTACACATGGACCGGTTTTCCCGGTAATCCGTATTTGAC (site ATCTATACTGT) | 0.824
53 | ATCTAGACATGGACCGGTTTTCCCGGTAATCCGTATTTGAG (site ATCTAGACTCT) | 1.31
54 | ATCTAGGCATGGACCGGTTTTCCCGGTAATCCGTATTTGGC (site ATATAGGCTGC) | 0
55 | ATCTAGGCATGGACCGGTTTTCCCGGTAATCCGTATTTGGC (site ATCTAGGCTGC) | 0
56 | ATCTAGGCATGGACCGGTTTTCCCGGTAATCCGTATTTGGC (site ATGTAGGCTGC) | 0
57 | ATCTAGGCATGGACCGGTTTTCCCGGTAATCCGTATTTGGC (site ATTTAGGCTGC) | 0
58 | ATCTATACATGGACCGGTTTTCCCGGTAATCCGTATTTGAG (site ATCTATACTAT) | 0.478
59 | ATCTATACATGGACCGGTTTTCCCGGTAATCCGTATTTGAG (site ATCTATACTCT) | 1.31
60 | ATCTATACATGGACCGGTTTTCCCGGTAATCCGTATTTGAG (site ATCTATACTGT) | 0
61 | ATCTATACATGGACCGGTTTTCCCGGTAATCCGTATTTGAG (site ATCTATACTTT) | 0.0268
62 | ATCTATACATGGACCGGTTTTCCCGGTAATCCGTATTTGGC (site ATCTATACTGA) | 1.09
63 | ATCTATACATGGACCGGTTTTCCCGGTAATCCGTATTTGGC (site ATCTATACTGC) | 2.23
64 | ATCTATACATGGACCGGTTTTCCCGGTAATCCGTATTTGGC (site ATCTATACTGG) | 0
65 | ATCTATACATGGACCGGTTTTCCCGGTAATCCGTATTTGGC (site ATCTATACTGT) | 2.09
66 | ATCTGTACATGGACCGGTTTTCCCGGTAATCCGTATTTGAC (site ATCTATACTGT) | 0
67 | ATCTGTACATGGACCGGTTTTCCCGGTAATCCGTATTTGAC (site ATCTCTACTGT) | 0
68 | ATCTGTACATGGACCGGTTTTCCCGGTAATCCGTATTTGAC (site ATCTGTACTGT) | 1.31
